Test results published in PubChem BioAssay (NCI).
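Protocol summary: plate cells (96-well), add compound at 5 concentrations, incubate 48 h, interpolate endpoints linearly. At the GI50, growth is halved. TGI: total growth inhibition.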

Columns and labels:
Test in all cases: NCI tumour cell line growth inhibition, 48 h
[1] = test system: UACC-257 melanoma
[2] = test system: CAKI-1 renal
[3] = test system: SK-OV-3 ovarian
[4] = test system: A498 renal
[5] = test system: SF-295 CNS
[6] = test system: OVCAR-8 ovarian
[7] = test system: SR leukemia
[8] = test system: SW-620 colon
[9] = test system: KM12 colon
[10] = test system: MALME-3M melanoma
[11] = test system: HCT-15 colon
[12] = test system: NCI-H226 lung
[13] = test system: U251 CNS
[14] = test system: HL-60(TB) leukemia
[15] = test system: M14 melanoma
[16] = test system: HOP-62 NSCLC
[17] = test system: 786-0 renal
[18] = test system: OVCAR-4 ovarian
[19] = test system: BT-549 breast
[20] = test system: NCI-H23 lung
[21] = test system: PC-3 prostate
[22] = test system: SN12C renal
[23] = test system: OVCAR-5 ovarian
[24] = test system: ACHN renal
[25] = test system: HS 578T breast
[26] = test system: LOX IMVI melanoma
[27] = test system: MDA-MB-435
[28] = test system: IGROV1 ovarian
[29] = test system: SF-539 CNS

Question: What does the source list for `[N-]=[N+]=NCCCn1c2c(c3ccccc3c1=O)C(=O)c1cc(Br)ccc1-2`?
Answer: TGI [1]: > 100 µM; GI50 [2]: > 100 µM; TGI [2]: > 100 µM; GI50 [3]: > 100 µM; TGI [3]: > 100 µM; GI50 [4]: > 100 µM; TGI [4]: > 100 µM; GI50 [5]: > 100 µM; TGI [5]: > 100 µM; GI50 [6]: > 100 µM; TGI [6]: > 100 µM; GI50 [7]: 9.82 µM; TGI [7]: 51.7 µM; GI50 [8]: > 100 µM; TGI [8]: > 100 µM; GI50 [9]: > 100 µM; TGI [9]: > 100 µM; GI50 [10]: > 100 µM; TGI [10]: > 100 µM; GI50 [11]: > 100 µM; TGI [11]: > 100 µM; GI50 [12]: > 100 µM; TGI [12]: > 100 µM; GI50 [13]: > 100 µM; TGI [13]: > 100 µM; GI50 [14]: > 100 µM; TGI [14]: > 100 µM; GI50 [15]: > 100 µM; TGI [15]: > 100 µM; GI50 [16]: > 100 µM; TGI [16]: > 100 µM; GI50 [17]: > 100 µM; TGI [17]: > 100 µM; GI50 [18]: > 100 µM; TGI [18]: > 100 µM; GI50 [19]: > 100 µM; TGI [19]: > 100 µM; GI50 [20]: > 100 µM; TGI [20]: > 100 µM; GI50 [21]: > 100 µM; TGI [21]: > 100 µM; GI50 [22]: > 100 µM; TGI [22]: > 100 µM; GI50 [23]: > 100 µM; TGI [23]: > 100 µM; GI50 [24]: > 100 µM; TGI [24]: > 100 µM; GI50 [25]: > 100 µM; TGI [25]: > 100 µM; GI50 [26]: > 100 µM; TGI [26]: > 100 µM; GI50 [27]: > 100 µM; TGI [27]: > 100 µM; GI50 [28]: > 100 µM; TGI [28]: > 100 µM; GI50 [29]: > 100 µM; TGI [29]: > 100 µM
